Data published in ChEMBL document CHEMBL4177607, “Antibacterial constituents of the plant family Amaryllidaceae” (2017).
In brackets after ≈: the same amount, converted by molar mass.

What was measured:
Assay type in all cases: functional
Staphylococcus aureus [1] = experiment: Antibacterial activity against Staphylococcus aureus
Edwardsiella ictaluri = experiment: Antibacterial activity against Edwardsiella ictaluri after 24 hrs
Escherichia coli [2] = experiment: Antibacterial activity against Escherichia coli assessed as diameter of inhibition zone at 1 mg/ml; details: read-out: DIZ
Flavobacterium columnare [3] = experiment: Antibacterial activity against Flavobacterium columnare BioMed after 24 hrs
Flavobacterium columnare [4] = experiment: Antibacterial activity against Flavobacterium columnare ALM-00-173 after 24 hrs; details: ALM-00-173, 24 h
Rhodococcus fascians = experiment: Antibacterial activity against Corynebacterium fascians assessed as diameter of inhibition zone at 10 mM after 48 to 72 hrs by paper disc method; details: Rhodococcoides fascians; read-out: DIZ
Staphylococcus aureus [5] = experiment: Antibacterial activity against Staphylococcus aureus assessed as diameter of inhibition zone at 1 mg/ml; details: read-out: DIZ
Neisseria gonorrhoeae = experiment: Antibacterial activity against Neisseria gonorrhoeae
Pseudomonas aeruginosa = experiment: Antibacterial activity against Pseudomonas aeruginosa after 24 hrs by broth microdilution method
Escherichia coli [6] = experiment: Antibacterial activity against Escherichia coli after 24 hrs by broth microdilution method
Shigella flexneri = experiment: Antibacterial activity against Shigella flexneri after 24 hrs by broth microdilution method
[7] = tested on: Agrobacterium tumefaciens; experiment: Antibacterial activity against Agrobacterium tumefaciens assessed as inhibition of crown gall tumor initiation at 1 mg/ml
Staphylococcus aureus [8] = experiment: Antibacterial activity against Staphylococcus aureus assessed as diameter of inhibition zone at 3 mg/ml; details: read-out: DIZ
Staphylococcus aureus [9] = experiment: Antibacterial activity against Staphylococcus aureus incubated overnight by two-fold serial dilution method
Escherichia coli [10] = experiment: Antibacterial activity against Escherichia coli incubated overnight by two-fold serial dilution method
Escherichia coli [11] = experiment: Antibacterial activity against Escherichia coli

Question: `O[C@H]1[C@H]2c3cc4c(cc3CN3CCC(=C[C@@H]1O)[C@H]23)OCO4` [LYCORINE] was tested. Which MIC (Staphylococcus aureus [1]) did it give?
Answer: > 287 µg/mL

Question: What about the MIC (Edwardsiella ictaluri) of the same compound?
Answer: > 287 µg/mL

Question: And the zone of inhibition at 1000 µg/mL (Escherichia coli [2])?
Answer: 13 to 25 mm

Question: What about the MIC (Flavobacterium columnare [3]) of the same compound?
Answer: 100 µM

Question: And the MIC (Flavobacterium columnare [4])?
Answer: 100 µM

Question: And the zone of inhibition at 10000 µM (Rhodococcus fascians)?
Answer: 0 mm

Question: What about the zone of inhibition at 1000 µg/mL (Staphylococcus aureus [5]) of the same compound?
Answer: 15 to 28 mm

Question: `Oc1ccc2c3c1c1cc4c(cc1c[n+]3CC2)OCO4` was tested. Which zone of inhibition at 10000 µM (Rhodococcus fascians) did it give?
Answer: 10 mm

Question: With `Cl.O[C@H]1[C@H]2c3cc4c(cc3CN3CCC(=C[C@@H]1O)[C@H]23)OCO4` as the compound, how does the MIC (Staphylococcus aureus [1]) read?
Answer: > 32 µg/mL

Question: And the MIC (Edwardsiella ictaluri)?
Answer: > 32 µg/mL

Question: What about the MIC (Flavobacterium columnare [3]) of the same compound?
Answer: 32 µg/mL

Question: What about the MIC (Flavobacterium columnare [4]) of the same compound?
Answer: 3 µg/mL

Question: Which results are given for `CC[C@H](CC[C@@H](C)[C@H]1CC[C@H]2[C@@H]3CC=C4C[C@@H](O)CC[C@]4(C)[C@H]3CC[C@]12C)C(C)C` [BETA-SITOSTEROL]?
Answer: zone of inhibition at 1000 µg/mL (Escherichia coli [2]): 13 mm; zone of inhibition at 1000 µg/mL (Staphylococcus aureus [5]): 15 mm

Question: `O=C(O[C@H]1[C@H]2c3cc4c(cc3CN3CCC(=C[C@@H]1OC(=O)c1cccc(Cl)c1)[C@H]23)OCO4)c1cccc(Cl)c1` was tested. Which MIC (Flavobacterium columnare [3]) did it give?
Answer: 5.6 µg/mL

Question: And the MIC (Flavobacterium columnare [4])?
Answer: 5.6 µg/mL

Question: Which MIC (Neisseria gonorrhoeae) does the source give for `CC(=O)Oc1c2c(cc3c1C(=O)N[C@@H]1C3=C[C@H](OC(C)=O)[C@@H](OC(C)=O)[C@H]1OC(C)=O)OCO2` here?
Answer: 32 to 64 µg/mL (≈ 67.3 to 135 µM)

Question: What does the source list for `Cc1c(O)c(C)c2c(c1O)C(=O)C[C@@H](c1ccc(O)cc1)O2` [FARREROL]?
Answer: MIC (Pseudomonas aeruginosa): 8 µg/mL (≈ 26.6 µM); MIC (Escherichia coli [6]): 4 µg/mL (≈ 13.3 µM); MIC (Shigella flexneri): 2 µg/mL (≈ 6.66 µM)

Question: Which zone of inhibition at 1000 µg/mL (Escherichia coli [2]) does the source give for `O=C1N[C@@H]2C(=C[C@H](O)[C@@H](O)[C@H]2O)c2cc3c(cc21)OCO3` here?
Answer: 12 mm

Question: What about the zone of inhibition at 1000 µg/mL (Staphylococcus aureus [5]) of the same compound?
Answer: 11 mm

Question: How did the MIC (Flavobacterium columnare [3]) turn out when `O=C(O[C@H]1C=C2CCN3Cc4cc5c(cc4[C@H]([C@@H]1O)[C@@H]23)OCO5)c1ccc(Cl)cc1` was run?
Answer: 42.6 µg/mL

Question: And the MIC (Flavobacterium columnare [4])?
Answer: 42.6 µg/mL

Question: With `CCCCCCCCCCCC(=O)Oc1ccc([C@@H]2CC(=O)c3c(O)c(C)c(O)c(C)c3O2)cc1` as the compound, how does the MIC (Pseudomonas aeruginosa) read?
Answer: 16 µg/mL (≈ 33.2 µM)

Question: What about the MIC (Escherichia coli [6]) of the same compound?
Answer: 8 µg/mL (≈ 16.6 µM)

Question: What about the MIC (Shigella flexneri) of the same compound?
Answer: 8 µg/mL (≈ 16.6 µM)

Question: For `Cc1ccccc1C(=O)O[C@H]1[C@H]2c3cc4c(cc3CN3CCC(=C[C@@H]1OC(=O)c1ccccc1C)[C@H]23)OCO4`, which MIC (Flavobacterium columnare [3]) is on record?
Answer: 4.1 µg/mL

Question: And the MIC (Flavobacterium columnare [4])?
Answer: 4.1 µg/mL

Question: With `Cc1ccccc1NC(=O)O[C@H]1C=C2CCN3Cc4cc5c(cc4[C@H]([C@@H]1O)[C@@H]23)OCO5` as the compound, how does the MIC (Flavobacterium columnare [3]) read?
Answer: 42.1 µg/mL

Question: And the MIC (Flavobacterium columnare [4])?
Answer: 23.2 µg/mL

Question: `O=C1N[C@@H]2C(=C[C@H](O)[C@@H](O)[C@H]2O[C@@H]2O[C@H](CO)[C@@H](O)[C@H](O)[C@H]2O)c2cc3c(c(O)c21)OCO3` was tested. Which inhibition at 1000 µg/mL [7] did it give?
Answer: 53%

Question: What does the source list for `CCCC(=O)Oc1ccc([C@@H]2CC(=O)c3c(O)c(C)c(O)c(C)c3O2)cc1`?
Answer: MIC (Pseudomonas aeruginosa): 8 µg/mL (≈ 21.6 µM); MIC (Escherichia coli [6]): 4 µg/mL (≈ 10.8 µM); MIC (Shigella flexneri): 2 µg/mL (≈ 5.4 µM)

Question: What does the source list for `[O-]c1ccc2c3c1c1cc4c(cc1c[n+]3CC2)OCO4`?
Answer: MIC (Flavobacterium columnare [3]): 100 µM; MIC (Flavobacterium columnare [4]): 10 µM

Question: What does the source list for `CC(=O)O[C@H]1[C@H]2c3cc4c(cc3CN3CCC(=C[C@@H]1OC(C)=O)[C@H]23)OCO4`?
Answer: MIC (Staphylococcus aureus [1]): > 37 µg/mL; MIC (Edwardsiella ictaluri): > 37 µg/mL; MIC (Flavobacterium columnare [3]): 37 µg/mL; MIC (Flavobacterium columnare [4]): 4 µg/mL

Question: `O=c1c2cc3c(cc2c2cccc4c2n1CC4)OCO3` was tested. Which MIC (Flavobacterium columnare [3]) did it give?
Answer: 100 µM

Question: What about the MIC (Flavobacterium columnare [4]) of the same compound?
Answer: 10 µM

Question: What about the zone of inhibition at 10000 µM (Rhodococcus fascians) of the same compound?
Answer: 25 mm

Question: How did the zone of inhibition at 3000 µg/mL (Staphylococcus aureus [8]) turn out when `O[C@@H]1C=C[C@]23c4cc5c(cc4C[N@@](C[C@@H]2O)[C@H]3C1)OCO5` was run?
Answer: 17 mm

Question: How did the MIC (Staphylococcus aureus [9]) turn out when `COC1C=C[C@@]23CCN(Cc4cc5c(cc42)OCO5)[C@@H]3C1` (stereo partly specified) was run?
Answer: 1020 µg/mL (≈ 3590 µM)

Question: And the MIC (Escherichia coli [10])?
Answer: 1020 µg/mL (≈ 3590 µM)

Question: How did the MIC (Flavobacterium columnare [3]) turn out when `C[N+]12CCC3=C[C@H](OC(=O)c4ccccc4Cl)[C@@H](OC(=O)c4ccccc4Cl)[C@@H](c4cc5c(cc4C1)OCO5)[C@@H]32.[I-]` (stereo partly specified) was run?
Answer: > 70 µg/mL

Question: What about the MIC (Flavobacterium columnare [4]) of the same compound?
Answer: > 70 µg/mL

Question: Which results are given for `Cc1ccc(C(=O)O[C@H]2[C@H]3c4cc5c(cc4CN4CCC(=C[C@@H]2OC(=O)c2ccc(C)cc2C)[C@H]34)OCO5)c(C)c1`?
Answer: MIC (Flavobacterium columnare [3]): 30.4 µg/mL; MIC (Flavobacterium columnare [4]): 5.5 µg/mL

Question: How did the MIC (Staphylococcus aureus [9]) turn out when `CN(C)[C@@H]1C(O)=C(C(N)=O)C(=O)[C@@]2(O)C(O)=C3C(=O)c4c(O)cccc4[C@@](C)(O)[C@H]3C[C@@H]12` [TETRACYCLINE] was run?
Answer: 0.5 µg/mL (≈ 1.13 µM)

Question: And the MIC (Escherichia coli [10])?
Answer: 2 µg/mL (≈ 4.5 µM)

Question: Which MIC (Escherichia coli [11]) does the source give for `O[C@@H]1CC=C2CCN3Cc4cc5c(cc4[C@H]1[C@@H]23)OCO5` [CARANINE] here?
Answer: 2050 µg/mL (≈ 7550 µM)

Question: How did the MIC (Flavobacterium columnare [3]) turn out when `Cc1ccc(C(=O)O[C@H]2C=C3CCN4Cc5cc6c(cc5[C@H]([C@@H]2O)[C@@H]34)OCO6)cc1` was run?
Answer: 22.9 µg/mL

Question: And the MIC (Flavobacterium columnare [4])?
Answer: 4.7 µg/mL

Question: How did the MIC (Pseudomonas aeruginosa) turn out when `O=C1N[C@H]2[C@H](O)[C@H](O)[C@@H](O)C[C@@H]2c2cc3c(c(O)c21)OCO3` was run?
Answer: 16 µg/mL (≈ 51.7 µM)

Question: What about the MIC (Escherichia coli [6]) of the same compound?
Answer: 4 µg/mL (≈ 12.9 µM)

Question: What about the MIC (Shigella flexneri) of the same compound?
Answer: 4 µg/mL (≈ 12.9 µM)

Question: What does the source list for `COc1cc2c(c(O)c1C)C(=O)C(O)C(c1ccc(O)cc1)O2` (stereo unspecified)?
Answer: MIC (Pseudomonas aeruginosa): 32 µg/mL (≈ 101 µM); MIC (Escherichia coli [6]): 16 µg/mL (≈ 50.6 µM); MIC (Shigella flexneri): 4 µg/mL (≈ 12.6 µM)

Question: For `COc1ccc2c3c1O[C@H]1C[C@@H](O)C=C[C@@]31CCN(C)C2` [GALANTAMINE], which MIC (Staphylococcus aureus [9]) is on record?
Answer: 2050 µg/mL (≈ 7130 µM)

Question: What about the MIC (Escherichia coli [10]) of the same compound?
Answer: 2050 µg/mL (≈ 7130 µM)

Question: Which zone of inhibition at 1000 µg/mL (Escherichia coli [2]) does the source give for `COc1cc2c(cc1OC)[C@H]1[C@H]3C(=CC[C@H]1O[C@@H]2OC)CCN3C` here?
Answer: 14 mm

Question: And the zone of inhibition at 1000 µg/mL (Staphylococcus aureus [5])?
Answer: 14 mm
